Paper PMC7317746 (Environmental and Molecular Mutagenesis, 2020)

Tested on: male Sprague Dawley rats
Experiment: Pig‐a assay
Type: in vivo, rat
[1] = 1-Month Study, 40 mg/kg/day Days 1-3, Day 15, positive control
[2] = 1-Month Study, 40 mg/kg/day Days 1-3, Day 29, positive control
[3] = 1-Month Study, 40 mg/kg/day, Day -1 (pre-treatment)
[4] = 3-Day Study, 40 mg/kg/day Days 1-3, Day 15, positive control
[5] = 3-Day Study, 40 mg/kg/day Days 1-3, Day 30, positive control
[6] = 3-Day Study, 40 mg/kg/day Days 1-3, Day 45, positive control
[7] = 3-Day Study, 40 mg/kg/day, Day -4 (pre-treatment)

## CCN(N=O)C(N)=O [ENU, N‐ethyl‐N‐nitrosourea]
[1]
  %RETs mean ± SD: 3.1 ± 0.4%
  Number of CD59‐Neg RBCs per 10^6 RBCs mean ± SD: 79.5 ± 12.3 per 10^6 RBCs
  Number of CD59‐Neg RETs per 10^6 RETs mean ± SD: 356.2 ± 64.4 per 10^6 RETs
[2]
  %RETs mean ± SD: 3.7 ± 0.7%
  Number of CD59‐Neg RBCs per 10^6 RBCs mean ± SD: 211.0 ± 26.9 per 10^6 RBCs
  Number of CD59‐Neg RETs per 10^6 RETs mean ± SD: 291.4 ± 33.7 per 10^6 RETs
[3]
  %RETs mean ± SD: 4.8 ± 0.7%
  Number of CD59‐Neg RBCs per 10^6 RBCs mean ± SD: 0.6 ± 0.3 per 10^6 RBCs
  Number of CD59‐Neg RETs per 10^6 RETs mean ± SD: 0.5 ± 0.5 per 10^6 RETs
[4]
  %RETs mean ± SD: 3.3 ± 1.1%
  Number of CD59‐Neg RBCs per 10^6 RBCs mean ± SD: 97.7 ± 7.2 per 10^6 RBCs
  Number of CD59‐Neg RETs per 10^6 RETs mean ± SD: 414.2 ± 6.5 per 10^6 RETs
[5]
  %RETs mean ± SD: 3.3 ± 0.6%
  Number of CD59‐Neg RBCs per 10^6 RBCs mean ± SD: 256.7 ± 62.0 per 10^6 RBCs
  Number of CD59‐Neg RETs per 10^6 RETs mean ± SD: 282.7 ± 77.4 per 10^6 RETs
[6]
  %RETs mean ± SD: 2.7 ± 0.7%
  Number of CD59‐Neg RBCs per 10^6 RBCs mean ± SD: 382.7 ± 26.3 per 10^6 RBCs
  Number of CD59‐Neg RETs per 10^6 RETs mean ± SD: 305.9 ± 59.5 per 10^6 RETs
[7]
  %RETs mean ± SD: 3.2 ± 0.4%
  Number of CD59‐Neg RBCs per 10^6 RBCs mean ± SD: 0.4 ± 0.1 per 10^6 RBCs
  Number of CD59‐Neg RETs per 10^6 RETs mean ± SD: 1.6 ± 0.7 per 10^6 RETs
